The target of assay [1] is T1, BRG1 (Homo sapiens, UniProt P51532).
T1 construct: either BRM primary antibody (Cell signaling Cat #11966) or BRG primary antibody (Abcam, ab 110641); endogenous in cells; host or cells: SW1573
Briefly: Immunofluorescence assay for BRG1 degradation in SW1573 cells. Format: cell-based. Conditions: 20 hours incubation; for DC50: immunofluorescence mean nuclear signal, read-out: BRG1 IF Degradation IC50; for Dmax: SW1573, 20 h, normalized to a known degrader control, read-out: BRG1 IF Degradation Sinf (%). A digest of the protocol:
(§1)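 SW1573 cells treated with compound for 20 h, then fixed, permeabilized and immunostained for BRM or BRG1 with Hoechst nuclear counterstain. Mean nuclear intensity per cell quantified by high-content imaging; data normalized to a reference degrader control, with floating-maximum curve fits giving IC50 and Dmax.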

Assay [2] has as its target BRM (Homo sapiens, UniProt P51531). Briefly: Immunofluorescence assay for BRM degradation in SW1573 cells. In kind it is cell-based. Conditions: 20 hours incubation; for DC50: immunofluorescence mean nuclear signal, read-out: BRM IF Degradation IC50; for BRM IF Degradation Sinf (%): normalized to a known degrader control. Also on record: treated overnight at 4° C. with either BRM primary antibody (Cell signaling Cat #11966) or BRG primary antibody; endogenous in cells; host or cells: SW1573. A digest of the protocol: as §1

Chain of BRM (P51531 whole entry): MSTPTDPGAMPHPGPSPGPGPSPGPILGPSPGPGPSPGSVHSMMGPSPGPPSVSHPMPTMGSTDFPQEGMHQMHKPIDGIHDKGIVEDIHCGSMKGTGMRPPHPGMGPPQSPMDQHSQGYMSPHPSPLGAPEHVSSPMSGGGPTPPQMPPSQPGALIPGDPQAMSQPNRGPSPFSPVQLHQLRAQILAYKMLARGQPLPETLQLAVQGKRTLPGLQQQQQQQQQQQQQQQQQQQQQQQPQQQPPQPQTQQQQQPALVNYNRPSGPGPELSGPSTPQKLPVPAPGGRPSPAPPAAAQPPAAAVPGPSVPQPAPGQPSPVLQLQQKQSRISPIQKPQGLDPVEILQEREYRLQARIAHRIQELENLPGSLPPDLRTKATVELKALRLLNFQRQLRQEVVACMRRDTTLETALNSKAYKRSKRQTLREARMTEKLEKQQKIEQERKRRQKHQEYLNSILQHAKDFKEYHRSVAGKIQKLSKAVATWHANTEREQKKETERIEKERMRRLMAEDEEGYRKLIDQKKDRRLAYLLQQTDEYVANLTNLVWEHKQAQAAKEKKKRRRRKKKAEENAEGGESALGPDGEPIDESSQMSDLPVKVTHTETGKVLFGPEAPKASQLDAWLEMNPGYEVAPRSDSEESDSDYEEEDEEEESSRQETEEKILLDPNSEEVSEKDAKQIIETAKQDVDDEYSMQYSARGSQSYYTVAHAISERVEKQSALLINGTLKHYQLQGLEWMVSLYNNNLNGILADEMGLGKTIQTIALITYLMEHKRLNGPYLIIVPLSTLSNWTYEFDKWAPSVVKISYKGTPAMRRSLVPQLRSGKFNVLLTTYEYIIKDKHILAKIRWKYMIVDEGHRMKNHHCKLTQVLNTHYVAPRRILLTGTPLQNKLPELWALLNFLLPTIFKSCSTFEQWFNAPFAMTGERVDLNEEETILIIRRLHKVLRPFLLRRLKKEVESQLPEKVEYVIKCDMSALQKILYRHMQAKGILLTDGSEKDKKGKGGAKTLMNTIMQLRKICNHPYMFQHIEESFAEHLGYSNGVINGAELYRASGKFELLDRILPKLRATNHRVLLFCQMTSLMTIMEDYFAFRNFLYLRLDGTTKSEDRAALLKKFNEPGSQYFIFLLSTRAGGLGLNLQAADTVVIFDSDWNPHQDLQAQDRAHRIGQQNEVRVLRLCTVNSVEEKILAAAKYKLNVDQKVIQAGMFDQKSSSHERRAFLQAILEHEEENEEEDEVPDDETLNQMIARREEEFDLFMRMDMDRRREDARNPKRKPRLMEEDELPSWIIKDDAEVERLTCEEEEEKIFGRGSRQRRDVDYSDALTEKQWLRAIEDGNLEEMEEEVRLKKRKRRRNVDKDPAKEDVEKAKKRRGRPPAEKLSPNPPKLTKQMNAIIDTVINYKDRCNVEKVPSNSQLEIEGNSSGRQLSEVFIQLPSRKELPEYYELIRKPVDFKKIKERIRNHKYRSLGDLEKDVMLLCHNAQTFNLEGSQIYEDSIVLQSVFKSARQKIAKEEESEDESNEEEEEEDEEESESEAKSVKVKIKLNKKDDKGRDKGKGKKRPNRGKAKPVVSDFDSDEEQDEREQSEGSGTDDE
T1 sequence (P51532 whole entry): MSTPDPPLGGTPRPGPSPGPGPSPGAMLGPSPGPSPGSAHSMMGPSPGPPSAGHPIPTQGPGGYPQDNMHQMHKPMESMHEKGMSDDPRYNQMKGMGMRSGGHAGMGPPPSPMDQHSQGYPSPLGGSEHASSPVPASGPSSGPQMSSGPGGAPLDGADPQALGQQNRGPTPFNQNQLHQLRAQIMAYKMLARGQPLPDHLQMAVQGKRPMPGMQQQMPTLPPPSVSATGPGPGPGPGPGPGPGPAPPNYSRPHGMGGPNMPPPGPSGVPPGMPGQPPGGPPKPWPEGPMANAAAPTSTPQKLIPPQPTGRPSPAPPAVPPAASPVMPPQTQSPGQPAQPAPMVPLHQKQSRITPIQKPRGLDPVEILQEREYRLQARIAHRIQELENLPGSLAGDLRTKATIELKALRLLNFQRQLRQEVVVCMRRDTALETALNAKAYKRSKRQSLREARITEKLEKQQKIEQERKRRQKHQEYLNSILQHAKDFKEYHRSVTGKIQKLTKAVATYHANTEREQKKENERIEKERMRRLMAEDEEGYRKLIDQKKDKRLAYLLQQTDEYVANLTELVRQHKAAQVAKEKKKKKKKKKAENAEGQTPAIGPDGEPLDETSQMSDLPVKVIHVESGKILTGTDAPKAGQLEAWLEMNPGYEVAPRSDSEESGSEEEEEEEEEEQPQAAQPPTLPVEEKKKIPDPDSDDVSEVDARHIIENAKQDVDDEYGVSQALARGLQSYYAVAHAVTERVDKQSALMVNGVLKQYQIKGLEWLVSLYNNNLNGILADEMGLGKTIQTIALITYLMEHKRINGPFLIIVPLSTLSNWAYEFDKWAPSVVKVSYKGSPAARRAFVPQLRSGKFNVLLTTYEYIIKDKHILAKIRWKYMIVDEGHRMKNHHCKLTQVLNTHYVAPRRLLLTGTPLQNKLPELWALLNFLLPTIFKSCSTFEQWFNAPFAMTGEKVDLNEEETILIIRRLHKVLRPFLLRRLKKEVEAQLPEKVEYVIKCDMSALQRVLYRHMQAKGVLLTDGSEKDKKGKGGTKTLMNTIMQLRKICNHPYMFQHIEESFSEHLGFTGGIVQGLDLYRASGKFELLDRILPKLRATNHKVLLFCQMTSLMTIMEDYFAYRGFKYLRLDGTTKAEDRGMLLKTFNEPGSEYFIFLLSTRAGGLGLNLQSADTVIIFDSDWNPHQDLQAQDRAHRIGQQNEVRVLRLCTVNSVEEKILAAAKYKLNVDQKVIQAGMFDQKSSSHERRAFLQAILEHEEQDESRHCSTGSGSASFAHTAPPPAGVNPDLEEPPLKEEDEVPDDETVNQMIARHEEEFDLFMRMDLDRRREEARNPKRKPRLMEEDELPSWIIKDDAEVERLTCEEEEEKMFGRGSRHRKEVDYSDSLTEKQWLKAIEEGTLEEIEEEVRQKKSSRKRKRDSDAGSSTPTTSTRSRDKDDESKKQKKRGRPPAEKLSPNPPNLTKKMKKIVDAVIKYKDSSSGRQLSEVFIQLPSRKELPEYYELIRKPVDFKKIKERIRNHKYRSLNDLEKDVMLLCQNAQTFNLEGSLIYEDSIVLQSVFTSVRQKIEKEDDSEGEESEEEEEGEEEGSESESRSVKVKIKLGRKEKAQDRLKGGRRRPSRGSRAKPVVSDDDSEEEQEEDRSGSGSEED

Take `Nc1nnc(-c2ccccc2O)cc1N1CC2CCC(C1)N2c1ccnc(C#CCN2CCOC3(CCC3)C2)c1` [Compound 77]: the DC50 in assay [1] is over 100 nM. In addition, in assay [2], the DC50 fell in the range of 10 to 100 nM and the “BRM IF Degradation Sinf (%)” value is listed as “E (E indicates −30%-−70%)”.
The like results for `Nc1nnc(-c2ccccc2O)cc1N1CC2CCC(C1)N2c1ccnc(C#CCN2CCC3CC[C@@H](O)C32)c1` (stereo partly drawn) [Compound 78, (6R)-1-[3-[4-[3-[3-amino-6-(2-hydroxyphenyl)pyridazin-4-yl]-3,8-diazabicyclo[3.2.1]octan-8-yl]-2-pyridyl]prop-2-ynyl]-3,3a,4,5,6,6a-hexahydro-2H-cyclopenta[b]pyrrol-6-ol] were, in that order, over 100 nM, under 10 nM and “E (E indicates −30%-−70%)”.
For `CC1CN(CC#Cc2cc(N3C4CCC3CN(c3cc(-c5ccccc5O)nnc3N)C4)ccn2)CC(C)O1` (stereo not drawn) [Compound 79, 2-[6-amino-5-[8-[2-[3-(2,6-dimethylmorpholin-4-yl)prop-1-ynyl]-4-pyridyl]-3,8-diazabicyclo[3.2.1]octan-3-yl]pyridazin-3-yl]phenol] the same measures were over 100 nM, 10 to 100 nM and “E (E indicates −30%-−70%)”.
As to `Nc1nnc(-c2ccccc2O)cc1N1CC2CCC(C1)N2c1ccnc(C#CCN2CCC(N3CCOCC3)C2)c1` (stereo not drawn) [Compound 80, 2-[6-amino-5-[8-[2-[3-(3-morpholinopyrrolidin-1-yl)prop-1-ynyl]-4-pyridyl]-3,8-diazabicyclo[3.2.1]octan-3-yl]pyridazin-3-yl]phenol], in assay [1], the DC50 was under 10 nM and the Dmax was in the range of 0 to 30%. Besides, in assay [2], the DC50 was in the range of 10 to 100 nM and the “BRM IF Degradation Sinf (%)” value was “E (E indicates −30%-−70%)”.
As to `Nc1nnc(-c2ccccc2O)cc1N1CC2CCC(C1)N2c1ccnc(C#CCN2CC3CCOC3C2)c1` (stereo not drawn) [Compound 81, 2-[5-[8-[2-[3-(2,3,3a,4,6,6a-hexahydrofuro[2,3-c]pyrrol-5-yl)prop-1-ynyl]-4-pyridyl]-3,8-diazabicyclo[3.2.1]octan-3-yl]-6-amino-pyridazin-3-yl]phenol], in assay [1], the DC50 is under 10 nM and the Dmax was 30 to 70%. In assay [2], the DC50 is under 10 nM and the “BRM IF Degradation Sinf (%)” value was “E (E indicates −30%-−70%)”.
Regarding `COC1C2CCC1N(CC#Cc1cc(N3C4CCC3CN(c3cc(-c5ccccc5O)nnc3N)C4)ccn1)C2` (stereo not drawn) [Compound 82, 2-[6-amino-5-[8-[2-[3-(7-methoxy-2-azabicyclo[2.2.1]heptan-2-yl)prop-1-ynyl]-4-pyridyl]-3,8-diazabicyclo[3.2.1]octan-3-yl]pyridazin-3-yl]phenol], in assay [1], the DC50 was under 10 nM and the Dmax is 30 to 70%. In assay [2], the DC50 is under 10 nM and the “BRM IF Degradation Sinf (%)” value is “E (E indicates −30%-−70%)”.
`Nc1nnc(-c2ccccc2O)cc1N1CC2CCC(C1)N2c1ccnc(C#CCN2CC3COCC(C2)C3O)c1` (stereo not drawn) [Compound 83, 7-[3-[4-[3-[3-amino-6-(2-hydroxyphenyl)pyridazin-4-yl]-3,8-diazabicyclo[3.2.1]octan-8-yl]-2-pyridyl]prop-2-ynyl]-3-oxa-7-azabicyclo[3.3.1]nonan-9-ol]: in assay [1], the DC50 fell in the range of 10 to 100 nM and the Dmax was in the range of 30 to 70%. Further, in assay [2], the DC50 was over 100 nM and the “BRM IF Degradation Sinf (%)” value was “E (E indicates −30%-−70%)”.
Take `Nc1nnc(-c2ccccc2O)cc1N1CC2CCC(C1)N2c1ccnc(C#CCN2CCC3(C2)CC3(F)F)c1` (stereo not drawn) [Compound 84, 2-[6-amino-5-[8-[2-[3-(2,2-difluoro-5-azaspiro[2.4]heptan-5-yl)prop-1-ynyl]-4-pyridyl]-3,8-diazabicyclo[3.2.1]octan-3-yl]pyridazin-3-yl]phenol]: the values for the DC50 in assay [1] and in assay [2] were over 100 nM and under 10 nM, respectively. In assay [2], the “BRM IF Degradation Sinf (%)” value is “E (E indicates −30%-−70%)”.
`CN(CC#Cc1cc(N2C3CCC2CN(c2cc(-c4ccccc4O)nnc2N)C3)ccn1)CC(=O)N1CCOCC1` [Compound 85, 2-[3-[4-[3-[3-amino-6-(2-hydroxyphenyl)pyridazin-4-yl]-3,8-diazabicyclo[3.2.1]octan-8-yl]-2-pyridyl]prop-2-ynyl-methyl-amino]-1-morpholino-ethanone]: the DC50 in assay [1] is over 100 nM. Further, in assay [2], the DC50 is over 100 nM and the “BRM IF Degradation Sinf (%)” value is “E (E indicates −30%-−70%)”.
Consider `Nc1nnc(-c2ccccc2O)cc1N1CC2CCC(C1)N2c1ccnc(C#CCN2CC3CC2C3)c1` [Compound 86, 2-[6-amino-5-[8-[2-[3-(2-azabicyclo[2.1.1]hexan-2-yl)prop-1-ynyl]-4-pyridyl]-3,8-diazabicyclo[3.2.1]octan-3-yl]pyridazin-3-yl]phenol], for which, in assay [1], the DC50 is under 10 nM and the Dmax lay in the range of 30 to 70%. In addition, in assay [2], the DC50 was under 10 nM and the “BRM IF Degradation Sinf (%)” value is “E (E indicates −30%-−70%)”.
For the compound `Nc1nnc(-c2ccccc2O)cc1N1CC2CCC(C1)N2c1ccnc(C#CCN2CCC3CC32)c1` (stereo not drawn) [Compound 87, 2-[6-amino-5-[8-[2-[3-(2-azabicyclo[3.1.0]hexan-2-yl)prop-1-ynyl]-4-pyridyl]-3,8-diazabicyclo[3.2.1]octan-3-yl]pyridazin-3-yl]phenol], in assay [1], the DC50 was under 10 nM and the Dmax was in the range of 30 to 70%. Besides, in assay [2], the DC50 was under 10 nM and the “BRM IF Degradation Sinf (%)” value is “E (E indicates −30%-−70%)”.
`Nc1nnc(-c2ccccc2O)cc1N1CC2CCC(C1)N2c1ccnc(C#CCN2CCC3COCC3C2)c1` (stereo not drawn) [Compound 88, 2-[5-[8-[2-[3-(3,3a,4,6,7,7a-hexahydro-1H-furo[3,4-c]pyridin-5-yl)prop-1-ynyl]-4-pyridyl]-3,8-diazabicyclo[3.2.1]octan-3-yl]-6-amino-pyridazin-3-yl]phenol]: in assay [1], the DC50 is under 10 nM and the Dmax lay within 0 to 30%. For the same compound, in assay [2], the DC50 is under 10 nM and the “BRM IF Degradation Sinf (%)” value is recorded as “E (E indicates −30%-−70%)”.
As to `CNC(=O)C1COCCN1CC#Cc1cc(N2C3CCC2CN(c2cc(-c4ccccc4O)nnc2N)C3)ccn1` (stereo not drawn) [Compound 89, 4-[3-[4-[3-[3-amino-6-(2-hydroxyphenyl)pyridazin-4-yl]-3,8-diazabicyclo[3.2.1]octan-8-yl]-2-pyridyl]prop-2-ynyl]-N-methyl-morpholine-3-carboxamide], the results for the DC50 in assay [1] and in assay [2] were over 100 nM and 10 to 100 nM, respectively. Besides, in assay [2], the “BRM IF Degradation Sinf (%)” value is given as “E (E indicates −30%-−70%)”.
For the compound `Nc1nnc(-c2ccccc2O)cc1N1CC2CCC(C1)N2c1ccnc(C#CCN2CCC[C@@H]3OCC[C@@H]32)c1` [Compound 90, 2-[5-[8-[2-[3-[(3aS,7aS)-3,3a,5,6,7,7a-hexahydro-2H-furo[3,2-b]pyridin-4-yl]prop-1-ynyl]-4-pyridyl]-3,8-diazabicyclo[3.2.1]octan-3-yl]-6-amino-pyridazin-3-yl]phenol], in assay [1], the DC50 is 10 to 100 nM and the Dmax lay within 0 to 30%. In assay [2], the DC50 is 10 to 100 nM and the “BRM IF Degradation Sinf (%)” value was “E (E indicates −30%-−70%)”.
For `Nc1nnc(-c2ccccc2O)cc1N1CC2CCC(C1)N2c1ccnc(C#CCN2CC3CCC3C2)c1` (stereo not drawn) [Compound 91, 2-[6-amino-5-[8-[2-[3-(3-azabicyclo[3.2.0]heptan-3-yl)prop-1-ynyl]-4-pyridyl]-3,8-diazabicyclo[3.2.1]octan-3-yl]pyridazin-3-yl]phenol], in assay [1], the DC50 is under 10 nM and the Dmax lay within 30 to 70%. Also, in assay [2], the DC50 was under 10 nM and the “BRM IF Degradation Sinf (%)” value is on record as “E (E indicates −30%-−70%)”.
For `Nc1nnc(-c2ccccc2O)cc1N1CC2CCC(C1)N2c1ccnc(C#CCN2CC3CCOCC3C2)c1` (stereo not drawn) [Compound 92, 2-[5-[8-[2-[3-(3,3a,4,6,7,7a-hexahydro-1H-pyrano[3,4-c]pyrrol-2-yl)prop-1-ynyl]-4-pyridyl]-3,8-diazabicyclo[3.2.1]octan-3-yl]-6-amino-pyridazin-3-yl]phenol], in assay [1], the DC50 is under 10 nM and the Dmax fell in the range of 30 to 70%. Further, in assay [2], the DC50 was under 10 nM and the “BRM IF Degradation Sinf (%)” value is reported as “F (F indicates −71%-−120%)”.
In the case of `Nc1nnc(-c2ccccc2O)cc1N1CC2CCC(C1)N2c1ccnc(C#CCN2CC3CCC(C3)C2)c1` [Compound 93, 2-[6-amino-5-[8-[2-[3-(3-azabicyclo[3.2.1]octan-3-yl)prop-1-ynyl]-4-pyridyl]-3,8-diazabicyclo[3.2.1]octan-3-yl]pyridazin-3-yl]phenol], in assay [1], the DC50 is over 100 nM. In assay [2], the DC50 is under 10 nM and the “BRM IF Degradation Sinf (%)” value is given as “E (E indicates −30%-−70%)”.
As for `Nc1nnc(-c2ccccc2O)cc1N1CC2CCC(C1)N2c1ccnc(C#CCN2CCC3CCCC32)c1` (stereo not drawn) [Compound 94, 2-[5-[8-[2-[3-(3,3a,4,5,6,6a-hexahydro-2H-cyelopenta[b]pyrrol-1-yl)prop-1-ynyl]-4-pyridyl]-3,8-diazabicyclo[3.2.1]octan-3-yl]-6-amino-pyridazin-3-yl]phenol], in assay [1], the DC50 is under 10 nM and the Dmax is 30 to 70%. Besides, in assay [2], the DC50 was under 10 nM and the “BRM IF Degradation Sinf (%)” value was “E (E indicates −30%-−70%)”.
Take `Nc1nnc(-c2ccccc2O)cc1N1CC2CCC(C1)N2c1ccnc(C#CCN2CC(C(F)F)C2)c1` [Compound 95, 2-[6-amino-5-[8-[2-[3-[3-(difluoromethyl)azetidin-1-yl]prop-1-ynyl]-4-pyridyl]-3,8-diazabicyclo[3.2.1]octan-3-yl]pyridazin-3-yl]phenol]: in assay [1], the DC50 is under 10 nM and the Dmax lay within 30 to 70%. For the same compound, in assay [2], the DC50 was under 10 nM and the “BRM IF Degradation Sinf (%)” value is listed as “E (E indicates −30%-−70%)”.

Values taken from US11993599B2, “Therapeutic compounds” (Genentech, Inc., priority 2021, dated 2024).
